According to ChEMBL document CHEMBL5046233, “Nitroxoline and its derivatives are potent inhibitors of metallo-β-lactamases” (Eur J Med Chem, 2022):
Calls of active or inactive are those of the source. No cut-off for these calls is given here.

Key:
Bacteria [1] = experiment: Inhibition of recombinant IMP-1 (unknown origin) using fluorocillin as substrate at 30 uM incubated for 30 mins by fluorescence based assay
Bacteria [2] = experiment: Inhibition of recombinant IMP-1 (unknown origin) using fluorocillin as substrate at 10 uM incubated for 30 mins by fluorescence based assay
Bacteria [3] = experiment: Inhibition of recombinant NDM-1 (unknown origin) using fluorocillin as substrate in presence of ZnCl2 incubated for 30 mins by fluorescence based assay
Escherichia coli [4] = experiment: Antimicrobial activity against Escherichia coli T2359 expressing NDM-1 assessed as inhibition of bacterial growth by CLSI protocol based broth microdilution assay; format: functional
Escherichia coli [5] = experiment: Antimicrobial activity against Escherichia coli clinical isolate T2228 expressing VIM-1 assessed as inhibition of bacterial growth by CLSI protocol based broth microdilution assay; format: functional
Escherichia coli [6] = experiment: Potentiation of imipenem-induced antibacterial activity against Escherichia coli T2359 expressing NDM-1 assessed as fold change in imipenem MIC at 32 mg/L by CLSI protocol based broth microdilution assay; format: functional
Escherichia coli [7] = experiment: Potentiation of imipenem-induced antibacterial activity against Escherichia coli T2544 expressing VIM-1 assessed as fold change in imipenem MIC at 32 mg/L by CLSI protocol based broth microdilution assay; format: functional
Klebsiella pneumoniae [8] = experiment: Potentiation of imipenem-induced antibacterial activity against Klebsiella pneumoniae clinical isolate T2301 expressing NDM-1 assessed as fold change in imipenem MIC at 32 mg/L by CLSI protocol based broth microdilution assay; format: functional
Klebsiella pneumoniae [9] = experiment: Potentiation of ceftazidime-induced antibacterial activity against Klebsiella pneumoniae clinical isolate T2301 expressing NDM-1 assessed as ceftazidime MIC at 32 mg/L by CLSI protocol based broth microdilution assay; format: functional
Klebsiella pneumoniae [10] = experiment: Potentiation of meropenem-induced antibacterial activity against Klebsiella pneumoniae clinical isolate T2301 expressing NDM-1 assessed as meropenem MIC at 32 mg/L by CLSI protocol based broth microdilution assay; format: functional
Escherichia coli [11] = experiment: Potentiation of piperacillin-induced antibacterial activity against Escherichia coli clinical isolate T2228 expressing VIM-1 assessed as piperacillin MIC at 32 mg/L by CLSI protocol based broth microdilution assay; format: functional
Escherichia coli [12] = experiment: Potentiation of ceftazidime-induced antibacterial activity against Escherichia coli clinical isolate T2228 expressing VIM-1 assessed as ceftazidime MIC at 32 mg/L by CLSI protocol based broth microdilution assay; format: functional
Escherichia coli [13] = experiment: Potentiation of meropenem-induced antibacterial activity against Escherichia coli clinical isolate T2228 expressing VIM-1 assessed as meropenem MIC at 32 mg/L by CLSI protocol based broth microdilution assay; format: functional
Escherichia coli [14] = experiment: Potentiation of gentamicin-induced antibacterial activity against Escherichia coli clinical isolate T2228 expressing VIM-1 assessed as gentamicin MIC at 32 mg/L by CLSI protocol based broth microdilution assay; format: functional
Enterobacter cloacae [15] = experiment: Potentiation of imipenem-induced antibacterial activity against Enterobacter cloacae T2311 expressing NDM-1 assessed as fold change in imipenem MIC at 32 mg/L by CLSI protocol based broth microdilution assay; format: functional
Pseudomonas aeruginosa [16] = experiment: Potentiation of imipenem-induced antibacterial activity against Pseudomonas aeruginosa T1098 expressing IMP-7 assessed as fold change in imipenem MIC at 32 mg/L by CLSI protocol based broth microdilution assay; format: functional
Citrobacter freundii = experiment: Potentiation of imipenem-induced antibacterial activity against Citrobacter freundii T2354 expressing VIM-4 assessed as fold change in imipenem MIC at 32 mg/L by CLSI protocol based broth microdilution assay; format: functional
Pseudomonas aeruginosa [17] = experiment: Potentiation of imipenem-induced antibacterial activity against Pseudomonas aeruginosa T2357 expressing VIM-1 assessed as fold change in imipenem MIC at 32 mg/L by CLSI protocol based broth microdilution assay; format: functional
Klebsiella pneumoniae [18] = experiment: Potentiation of imipenem-induced antibacterial activity against Klebsiella pneumoniae T2216 expressing VIM-1 assessed as fold change in imipenem MIC at 32 mg/L by CLSI protocol based broth microdilution assay; format: functional
Pseudomonas aeruginosa [19] = experiment: Potentiation of imipenem-induced antibacterial activity against Pseudomonas aeruginosa T2282 expressing VIM-2 assessed as fold change in imipenem MIC at 32 mg/L by CLSI protocol based broth microdilution assay; format: functional
Pseudomonas aeruginosa [20] = experiment: Potentiation of imipenem-induced antibacterial activity against Pseudomonas aeruginosa T2229 expressing SPM-1 assessed as fold change in imipenem MIC at 32 mg/L by CLSI protocol based broth microdilution assay; format: functional
Enterobacter cloacae [21] = experiment: Potentiation of imipenem-induced antibacterial activity against Enterobacter cloacae T2218 expressing GIM-1 assessed as fold change in imipenem MIC at 32 mg/L by CLSI protocol based broth microdilution assay; format: functional
Klebsiella pneumoniae [22] = experiment: Bactericidal activity against Klebsiella pneumoniae T2301 expressing NDM-1 assessed as killing rate at 0.5 X MIC measured after 24 hrs in presence of imipenem by time-kill assay relative to control; format: functional
Escherichia coli [23] = experiment: Potentiation of imipenem-induced antibacterial activity against Escherichia coli T2544 expressing VIM-1 assessed as imipenem MIC at 32 mg/L by CLSI protocol based broth microdilution assay; format: functional
Escherichia coli [24] = experiment: Potentiation of imipenem-induced antibacterial activity against Escherichia coli clinical isolate T2228 expressing VIM-1 assessed as imipenem MIC at 32 mg/L by CLSI protocol based broth microdilution assay; format: functional
Klebsiella pneumoniae [25] = experiment: Antimicrobial activity against Klebsiella pneumoniae T2301 expressing NDM-1 assessed as inhibition of bacterial growth at 0.5XMIC for 6 hrs by CLSI protocol based broth microdilution assay; format: functional, organism-based
HUVEC = experiment: Cytotoxicity against HUVEC cells assessed as late apoptosis by analysing number of sub-diploid events at 0.03 to 100 ug/mL measured after 24 hrs by propidium iodide staining based flow cytometry analysis; format: toxicity, cell-based; settings: human, dose 0.03-100 µg/ml
Escherichia coli [26] = experiment: Potentiation of imipenem-induced antibacterial activity against Escherichia coli T2351 expressing NDM-5 assessed as imipenem MIC at 32 mg/L by CLSI protocol based broth microdilution assay; format: functional
Pseudomonas aeruginosa [27] = experiment: Potentiation of imipenem-induced antibacterial activity against Pseudomonas aeruginosa T2325 expressing IMP-1 assessed as imipenem MIC at 32 mg/L by CLSI protocol based broth microdilution assay; format: functional
Enterobacter cloacae [28] = experiment: Potentiation of imipenem-induced antibacterial activity against Enterobacter cloacae T2353 expressing VIM-1 assessed as imipenem MIC at 32 mg/L by CLSI protocol based broth microdilution assay; format: functional
Pseudomonas aeruginosa [29] = experiment: Potentiation of imipenem-induced antibacterial activity against Pseudomonas aeruginosa T2357 expressing VIM-1 assessed as imipenem MIC at 32 mg/L by CLSI protocol based broth microdilution assay; format: functional
Klebsiella pneumoniae [30] = experiment: Potentiation of imipenem-induced antibacterial activity against Klebsiella pneumoniae T2216 expressing VIM-1 assessed as imipenem MIC at 32 mg/L by CLSI protocol based broth microdilution assay; format: functional
Pseudomonas aeruginosa [31] = experiment: Potentiation of imipenem-induced antibacterial activity against Pseudomonas aeruginosa T2229 expressing SPM-1 assessed as imipenem MIC at 32 mg/L by CLSI protocol based broth microdilution assay; format: functional
Klebsiella pneumoniae [32] = experiment: Potentiation of imipenem-induced antibacterial activity against Klebsiella pneumoniae T2432 expressing KPC-9 assessed as imipenem MIC at 32 mg/L by CLSI protocol based broth microdilution assay; format: functional

Question: Which results are given for `N#CCN(Cc1ccccc1)Cc1cc([N+](=O)[O-])c2cccnc2c1O`?
Answer: inhibition (Bacteria [1]): 98%; inhibition (Bacteria [2]): 93%; inhibition (Bacteria [3]): inactive; MIC (Escherichia coli [4]): > 0.064 µg/mL; MIC (Escherichia coli [5]): > 0.067 µg/mL; fold change (FC) (Escherichia coli [6]): 256; fold change (FC) (Escherichia coli [7]): 64; fold change (FC) (Klebsiella pneumoniae [8]): 64; MIC (Klebsiella pneumoniae [9]): 0.064 µg/mL; MIC (Klebsiella pneumoniae [10]): 0.25 µg/mL; MIC (Escherichia coli [11]): 1 µg/mL; MIC (Escherichia coli [12]): 0.06 µg/mL; MIC (Escherichia coli [13]): 0.125 µg/mL; MIC (Escherichia coli [14]): 0.002 µg/mL; fold change (FC) (Enterobacter cloacae [15]): 16; fold change (FC) (Pseudomonas aeruginosa [16]): 8; fold change (FC) (Citrobacter freundii): 8; fold change (FC) (Pseudomonas aeruginosa [17]): 32; fold change (FC) (Klebsiella pneumoniae [18]): 8; fold change (FC) (Pseudomonas aeruginosa [19]): 32; fold change (FC) (Pseudomonas aeruginosa [20]): 16; fold change (FC) (Enterobacter cloacae [21]): 4; Activity (Klebsiella pneumoniae [22]): >99.9%; MIC (Escherichia coli [23]): 0.0005 µg/mL; MIC (Escherichia coli [24]): 0.001 µg/mL; inhibition (Klebsiella pneumoniae [25]): Active; Activity (HUVEC): Toxic; MIC (Escherichia coli [26]): 0.001 µg/mL; MIC (Pseudomonas aeruginosa [27]): 0.001 µg/mL; MIC (Enterobacter cloacae [28]): 0.001 µg/mL; MIC (Pseudomonas aeruginosa [29]): 0.008 µg/mL; MIC (Klebsiella pneumoniae [30]): 0.0005 µg/mL; MIC (Pseudomonas aeruginosa [31]): 0.032 µg/mL; MIC (Klebsiella pneumoniae [32]): 0.016 µg/mL
